Target: T1, Cathepsin K (Homo sapiens, UniProt P43235)
T1 sequence (P43235 whole entry): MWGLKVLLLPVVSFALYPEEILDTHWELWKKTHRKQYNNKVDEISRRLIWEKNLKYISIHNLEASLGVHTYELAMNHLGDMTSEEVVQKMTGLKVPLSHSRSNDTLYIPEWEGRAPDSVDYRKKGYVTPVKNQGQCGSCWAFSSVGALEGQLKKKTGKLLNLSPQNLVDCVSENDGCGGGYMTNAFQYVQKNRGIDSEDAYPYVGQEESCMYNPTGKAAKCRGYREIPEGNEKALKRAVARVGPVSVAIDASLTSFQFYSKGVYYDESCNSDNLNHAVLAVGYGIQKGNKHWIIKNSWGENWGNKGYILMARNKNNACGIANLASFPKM
Assay: Inhibitory activity against recombinant human cathepsin K

Row | SMILES | IC50
1 | CCCCCC[C@@H](C=O)NC(=O)OC(C)(C)C | 23 nM
2 | CC(C)(C)OC(=O)N[C@H](C=O)CCCc1ccccc1 | 15 nM
3 | COC(=O)NC[C@@H](C=O)NC(=O)OC(C)(C)C | 370 nM
4 | CCC(C)[C@H](C=O)NC(=O)OC(C)(C)C (stereo partly drawn) | 130 nM
5 | CCC(C)[C@@H](C=O)NC(=O)OC(C)(C)C (stereo partly drawn) | 250 nM
6 | CC(C)(C)OC(=O)N[C@H](C=O)CCCC1CCCCC1 | 16 nM
7 | CC(C)(C)OC(=O)N[C@H](C=O)CC1CCCCC1 | 36 nM
8 | CCCCC[C@@H](C=O)NC(=O)OC(C)(C)C | 110 nM
9 | CSCC[C@@H](C=O)NC(=O)OC(C)(C)C | 78 nM
10 | CC(C)(C)OC(=O)N[C@H](C=O)c1ccccc1 | 51 nM
11 | CC(C)(C)OC(=O)N[C@H](C=O)CCc1ccccc1 | 30 nM
12 | CN(CCCC[C@@H](C=O)NC(=O)OC(C)(C)C)C(=O)C(F)(F)F | 50 nM
13 | CC(C)[C@@H](C=O)NC(=O)OC(C)(C)C | 160 nM
14 | CC(C)(C)OC(=O)N[C@H](C=O)CCCCNC(=O)C(F)(F)F | 41 nM
15 | CN(CCC[C@@H](C=O)NC(=O)OC(C)(C)C)C(=O)C(F)(F)F | 29 nM
16 | COCC[C@@H](C=O)NC(=O)OC(C)(C)C | 680 nM
17 | CN(CC[C@@H](C=O)NC(=O)OC(C)(C)C)C(=O)C(F)(F)F | 98 nM
18 | CC[C@@H](C=O)NC(=O)OC(C)(C)C | 58 nM
19 | CCSC[C@@H](C=O)NC(=O)OC(C)(C)C | 83 nM

Row | SMILES | IC50
20 | CC(C)(C)C[C@@H](C=O)NC(=O)OC(C)(C)C | 250 nM
21 | CCOC[C@@H](C=O)NC(=O)OC(C)(C)C | 660 nM
22 | CC(C)(C)OC(=O)N[C@H](C=O)Cc1ccccc1 | 110 nM
23 | C/C=C/C[C@@H](C=O)NC(=O)OC(C)(C)C | 150 nM
24 | CCC[C@@H](C=O)NC(=O)OC(C)(C)C | 38 nM
25 | CC#CC[C@@H](C=O)NC(=O)OC(C)(C)C | 410 nM
26 | C[C@@H](C=O)NC(=O)OC(C)(C)C | 200 nM
27 | CC(C)(C)OC(=O)N[C@H](C=O)C(C)(C)C | 52000 nM
28 | CC(C)(C)OC(=O)NCC=O | 5800 nM
29 | CC(C)(C)OC(=O)N[C@H](C=O)CCCC(F)(F)F | 87 nM
30 | CC(C)(C)OC(=O)N[C@H](C=O)CCC1CCCCC1 | 26 nM
31 | COC(=O)NCCCC[C@@H](C=O)NC(=O)OC(C)(C)C | 15 nM
32 | C/C=C\C[C@@H](C=O)NC(=O)OC(C)(C)C | 41 nM
33 | C=C(C)C[C@@H](C=O)NC(=O)OC(C)(C)C | 79 nM
34 | CC(C)(C)OC(=O)N[C@H](C=O)CSCc1ccccc1 | 40 nM
35 | CC(C)(C)OC(=O)N[C@H](C=O)COCc1ccccc1 | 38 nM
36 | CC(C)C[C@@H](C=O)NC(=O)OC(C)(C)C | 31 nM
37 | CCCC[C@@H](C=O)NC(=O)OC(C)(C)C | 51 nM
38 | CCCC[C@@H](C=O)NC(=O)[C@H](CC(C)C)NC(=O)OCc1ccccc1 [CALPEPTIN] | 0.11 nM

From ChEMBL document CHEMBL1149234, “Exploration of the P1 SAR of aldehyde cathepsin K inhibitors” (Bioorg Med Chem Lett, 2004)
